US9205174B2, “Bone graft substitute in the form of an implantable three-dimensional scaffold and method of manufacturing same” (Mathys AG Bettlach, priority 2010, dated 2015)

What was measured:
[1] = for expected (added) amount beyond which additional salt does not load the block / loading efficiency drastically decreases: 0.50 g/mL solution, 14×14 mm β-TCP cylinder, dried at 95° C.
Method: A 2^2 factorial design of experiments with three repeats was performed with the following factors: Factor A: CaCl2 concentration (0.25 or 0.50 g/mL); Factor B: Liquid amount (3.5 or 7.0 mL). Each of the 14×14 mm cylinders was placed standing in a snap cap flask.
The solution was then slowly added to allow impregnation through capillarity. The cylinder top was always protruding out of the solution. The samples were then inserted into the drying cupboard tempered at 60° C. The ventilation of the drying cupboard was set at its maximum.
The weight of the flask+solution+samples was measured at regular interval to determine the point at which constant weight was reached. […] Therefore, these 9 samples were removed from the flask and the weight was determined without flask. The 3 samples made with 7 mL 0.50 g/mL solution were kept for a longer time. The drying temperature was increased to 80° C.
Each of the 14×14 mm cylinders was placed standing in a snap cap flask. The solution was then slowly injected at the bottom of the snap-cap flask to allow impregnation through capillarity. 6 different volumes were injected: 1.8, 2.7, 3.6, 4.5, 5.6 and 6.3 mL.
Two cylinders were prepared for each solution volume. The cylinder top was always protruding out of the solution. The samples were then inserted into the drying cupboard tempered at 95° C. The ventilation of the drying cupboard was set at its maximum.
The weight of the flask+solution+samples was measured at regular interval to determine the point at which constant weight was reached. The sample weight was determined to assess how much di-potassium hydrogen phosphate was present in the block pores.
Each of the 14×14 mm cylinders was placed standing in a snap cap flask. The solution (kept at 95° C.) was then slowly injected at the bottom of the snap-cap flask to allow impregnation through capillarity. […]
The weight of the flask+solution+samples was measured at regular interval to determine the point at which constant weight was reached. […] The sample weight was determined to assess how much di-potassium hydrogen phosphate was present in the block pores.

[2] = Release test of loaded β-TCP blocks in 1 L deionized water, weight loss after drying; format: physicochemical; settings: for dissolution rate DRD relative to dissolution rate DRS of β-TCP: from weight losses; for release rate (in words): from loaded β-TCP blocks in 1 L deionized water; for amount released: 50 RPM
Method: (§1) Each sample was then placed into a small porous cage produced by joining together two BD Falcon filters (Mesh size: 70 micrometers). The cage was lowered into a 1 L deionized water. Stirring was performed with a large magnetic bar (6 cm in length) at 50 RPM. The samples were removed from the solution after 1 h or 3 h (1 sample per time and per composition). The samples were then dried at 95° C. and weighed to determine the amount of Na2HPO4.2H2O released during the test.
as §1, with “after 10 min,” for “after”, “or 6” for “or 3”, “(1 samples” for “(1 sample”, “of CaCl2” for “of Na2HPO4.2H2O”, “the incubation.” for “the test.”

SMILES	expected (added) amount beyond which additional salt does not load the block / loading efficiency drastically decreases [1]	dissolution rate DRD relative to dissolution rate DRS of β-TCP ([2]; deionized water)	release rate (in words) [2]	loading efficiency ([1]; Example 1, porous β-TCP blocks, 7 mL of 0.25 g/mL or 3.5 mL of 0.50 g/mL solution, dried at 60° C.) [%]	amount released ([2]; Example 4, after 1 h, deionized water)	state of samples after release ([2]; Example 4, at 6 h, deionized water)	amount released ([2]; Example 4, within 10 minutes, deionized water)
O=P([O-])([O-])O.[K+].[K+] [K2HPO4, di-potassium hydrogen phosphate]	≈ 2.5 g						
O=P([O-])([O-])O.[Na+].[Na+] [Na2HPO4.2H2O, di-sodium hydrogen phosphate]	~1.35 g	two order of magnitude larger	relatively slowly				
[Ca+2].[Cl-].[Cl-] [calcium chloride]		more than 100 times	very fast	~84	80-85%	free of calcium chloride	roughly 50%
